Assays:
[1] = target: T1, indoleamine 2,3-dioxygenases 2 (IDO2) (Homo sapiens, UniProt Q6ZQW0); test: Universal IDO1/IDO2/TDO Inhibitor Screening Assay Kit, IDO2; assay type: biochemical; conditions: read-out: Inhibition (%) IDO2
T1 construct: purchased BPS Bioscience, Inc. (San Diego, CA, USA)
T1 sequence (Q6ZQW0 1-407): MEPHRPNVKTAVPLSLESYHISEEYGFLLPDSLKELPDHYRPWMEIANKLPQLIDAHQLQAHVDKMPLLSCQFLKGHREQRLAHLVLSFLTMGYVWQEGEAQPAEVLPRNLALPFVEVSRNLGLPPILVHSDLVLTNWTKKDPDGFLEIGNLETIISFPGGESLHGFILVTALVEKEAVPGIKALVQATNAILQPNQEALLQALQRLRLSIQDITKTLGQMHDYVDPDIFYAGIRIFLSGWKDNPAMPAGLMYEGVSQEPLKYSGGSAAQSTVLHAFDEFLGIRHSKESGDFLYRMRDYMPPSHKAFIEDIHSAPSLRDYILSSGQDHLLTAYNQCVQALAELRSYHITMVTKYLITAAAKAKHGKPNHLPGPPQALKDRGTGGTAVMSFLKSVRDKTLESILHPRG
Experimental: (§1) This colorimetric assay is based on the measurement of the ability of IDO1, IDO2 and TDO to convert L-tryptophan into N-formylkynurenine (NFK). The experiments were performed according to the manufacturer’s guidelines. The final concentration of the compounds and extracts in the reaction mixture was 100 µg/mL. The amount of NFK was measured spectrophotometrically at 320 nm using an Epoch BioTek microplate reader (BioTek Instruments, Inc., Winooski, VT, USA). The samples were run in triplicate and the results were expressed as mean ± SEM.

[2] = target: T2, tryptophan 2,3-dioxygenase (TDO) (Homo sapiens, UniProt P48775); test: Universal IDO1/IDO2/TDO Inhibitor Screening Assay Kit, TDO; assay type: biochemical; conditions: read-out: Inhibition (%) TDO
T2 construct: purchased BPS Bioscience, Inc. (San Diego, CA, USA)
Experimental: as §1

T2 sequence (P48775 whole entry, species assumed): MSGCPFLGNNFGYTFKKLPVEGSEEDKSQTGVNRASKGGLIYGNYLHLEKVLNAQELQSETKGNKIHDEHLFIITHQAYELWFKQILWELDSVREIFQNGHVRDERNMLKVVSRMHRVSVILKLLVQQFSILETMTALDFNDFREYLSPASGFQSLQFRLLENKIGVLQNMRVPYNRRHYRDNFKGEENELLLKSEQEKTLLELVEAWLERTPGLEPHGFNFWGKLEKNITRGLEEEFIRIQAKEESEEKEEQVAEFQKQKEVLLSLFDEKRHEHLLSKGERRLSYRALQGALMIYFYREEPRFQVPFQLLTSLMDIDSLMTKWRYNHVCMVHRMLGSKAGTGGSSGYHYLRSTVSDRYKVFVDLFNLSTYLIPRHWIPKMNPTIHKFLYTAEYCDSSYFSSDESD

With `NS(=O)(=O)NCCNc1nonc1C(=NO)Nc1ccc(F)c(Br)c1` [epacadostat, reference compound] as the molecule, how does the inhibition at 100 µg/mL [1] read?
Its inhibition at 100 µg/mL is under 10%.

And the inhibition at 100 µg/mL [2]?
The inhibition at 100 µg/mL was under 10%.
